Experimental data as given in ChEMBL document CHEMBL1201862, “PubChem BioAssay data set” (2004).
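Values below derive from 48-hour exposures of cells grown in 96-well plates, with endpoints linearly interpolated between the two concentrations bracketing the appropriate inhibition level. GI50 = concentration required for 50% inhibition of growth.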 Calls of active or inactive are those of the source. Rule as the data show it: active = GI50 up to about 1.1 µM and inactive = higher.

Experiments:
Experiment in all cases: DTP human tumour cell line panel, 48 h
[1] = tested on: COLO 205
[2] = tested on: HOP-92
[3] = tested on: HT-29
[4] = tested on: SF-539
[5] = tested on: CAKI-1
[6] = tested on: RXF 393
[7] = tested on: MDA-MB-231
[8] = tested on: NCI-H226
[9] = tested on: MOLT-4
[10] = tested on: OVCAR-5
[11] = tested on: NCI-H23
[12] = tested on: LOX IMVI
[13] = tested on: HCC 2998
[14] = tested on: NCI/ADR-RES
[15] = tested on: SK-OV-3
[16] = tested on: BT-549
[17] = tested on: Hs-578T
[18] = tested on: NCI-H522
[19] = tested on: PC-3

Measured: GI50

Cc1cccc(/C=N/NC(=S)NC2CCCCC2)n1
inactive: [1] 8.85 µM | [2] 10.1 µM | [3] 3.27 µM | [4] 27.7 µM | [5] 43.3 µM | [6] 18.5 µM | [7] 35.1 µM | [8] 15.7 µM | [9] 2.26 µM | [10] 15.2 µM | [11] 32.4 µM | [12] 14 µM | [13] 20.7 µM | [14] 11.9 µM | [15] 23.1 µM | [16] 31 µM | [17] 31.1 µM | [18] 7.96 µM | [19] 6.73 µM

Cc1ccc(S(=O)(=O)CC2CCCn3c2c(C#N)c2ccccc23)cc1 (stereo not given)
inactive: [1] > 100 µM | [2] > 100 µM | [3] > 100 µM | [4] > 100 µM | [5] > 100 µM | [6] > 100 µM | [7] > 100 µM | [8] > 100 µM | [9] > 100 µM | [10] > 100 µM | [11] > 100 µM | [12] > 100 µM | [13] > 100 µM | [14] 65.5 µM | [15] > 100 µM | [16] > 100 µM | [17] > 100 µM | [18] > 100 µM | [19] 54.2 µM

O=C1CC2(CCNCC2)C(=O)N1N1CCOCC1
inactive: [1] > 100 µM | [2] > 100 µM | [3] > 100 µM | [4] > 100 µM | [5] > 100 µM | [6] > 100 µM | [7] > 100 µM | [8] > 100 µM | [9] > 100 µM | [10] > 100 µM | [11] > 100 µM | [12] > 100 µM | [13] > 100 µM | [14] > 100 µM | [15] > 100 µM | [16] > 100 µM | [17] > 100 µM | [18] > 100 µM | [19] > 100 µM

N#Cc1nc(C#N)n(S(=O)(=O)c2ccccc2)c1NS(=O)(=O)c1ccccc1
inactive: [1] > 100 µM | [2] > 100 µM | [3] > 100 µM | [4] > 100 µM | [5] > 37.8 µM | [6] > 100 µM | [7] > 100 µM | [8] > 100 µM | [9] > 100 µM | [10] > 100 µM | [11] > 100 µM | [12] > 100 µM | [13] > 100 µM | [14] > 100 µM | [15] > 100 µM | [16] > 100 µM | [17] > 100 µM | [18] > 100 µM | [19] > 100 µM

CC(=O)NNc1nc(C)c(C(/C=C/c2ccc([N+](=O)[O-])cc2)=N/NC(N)=S)s1
inactive: [1] > 100 µM | [2] > 100 µM | [3] > 100 µM | [4] > 100 µM | [5] > 100 µM | [6] > 100 µM | [7] > 100 µM | [8] > 100 µM | [9] > 100 µM | [10] > 100 µM | [11] > 100 µM | [12] > 100 µM | [13] > 100 µM | [14] > 100 µM | [15] > 100 µM | [16] > 100 µM | [17] > 100 µM | [18] > 100 µM | [19] > 100 µM

CC(=O)OC(C)(C)[C@H]1O[C@]23O[C@]1(C)C[C@@H](C)[C@@H]2[C@@]1(C)CC[C@@]24C[C@@]25CC[C@H](O[C@@H]2OC[C@@H](O)[C@H](O)[C@H]2O)C(C)(C)[C@@H]5CC[C@H]4[C@]1(C)[C@H]3O
inactive: [1] 9.12 µM | [2] 9.02 µM | [3] 8.38 µM | [4] 4.35 µM | [5] 5.47 µM | [6] 3.36 µM | [7] 4.61 µM | [8] 8.59 µM | [9] 5.32 µM | [10] 11.8 µM | [11] 4.84 µM | [12] 3.27 µM | [13] 9.93 µM | [14] 7.73 µM | [15] 12.3 µM | [16] 16.3 µM | [17] 17.4 µM | [18] 7.28 µM | [19] 4.65 µM

Cc1cc(Cl)ccc1Nc1sc(C(=O)c2cc3cc(Cl)ccc3o2)c(N)c1C#N
inactive: [1] > 69.8 µM | [2] 47 µM | [3] 8.67 µM | [4] 6.53 µM | [5] 25.1 µM | [6] 27.7 µM | [7] 4.99 µM | [8] > 87.7 µM | [9] > 53.3 µM | [10] > 43.7 µM | [11] 7.41 µM | [12] > 100 µM | [13] 3.1 µM | [14] 1.82 µM | [15] 14.7 µM | [16] > 51.9 µM | [17] > 100 µM | [18] 3.42 µM | [19] 6.08 µM

C=CCn1c(=O)ccn(/C(=C/C(=O)OCC)C(=O)OCC)c1=O
inactive: [1] 1.74 µM | [2] 2.36 µM | [3] 10.4 µM | [4] 24 µM | [5] 1.91 µM | [6] 14.1 µM | [7] 9.82 µM | [8] 13.9 µM | [9] 2.99 µM | [10] 15.6 µM | [11] 17.1 µM | [12] 6.7 µM | [13] 16.5 µM | [14] 21.3 µM | [15] 25.7 µM | [16] 15.7 µM | [17] 22.5 µM | [18] 2.44 µM | [19] 14.6 µM

N#CC1CCCC2SC(F)(F)C(F)(F)C12 (stereo not given)
inactive: [1] > 100 µM | [2] > 100 µM | [3] > 88.5 µM | [4] > 100 µM | [5] > 100 µM | [6] > 100 µM | [7] > 100 µM | [8] > 100 µM | [9] 26.6 µM | [10] > 100 µM | [11] > 100 µM | [12] 41.6 µM | [13] > 100 µM | [14] > 100 µM | [15] > 100 µM | [16] > 100 µM | [17] > 100 µM | [18] > 87.5 µM | [19] > 100 µM

O=C(Nc1ccccc1)c1cc(S(=O)(=O)NC2=Nc3ccc(Cl)cc3C(c3ccccc3)N2)c(SSc2cc(Cl)c(C(=O)Nc3ccccc3)cc2S(=O)(=O)NC2=Nc3ccc(Cl)cc3C(c3ccccc3)N2)cc1Cl (stereo not given)
inactive: [1] > 100 µM | [2] > 100 µM | [3] > 100 µM | [4] > 100 µM | [5] > 100 µM | [6] > 100 µM | [7] > 45.3 µM | [8] > 100 µM | [9] 28.4 µM | [10] > 61.5 µM | [11] > 100 µM | [12] > 100 µM | [13] > 100 µM | [14] > 100 µM | [15] > 100 µM | [16] > 100 µM | [17] > 100 µM | [18] > 100 µM | [19] > 100 µM
